Measured values reported in US6903052B2, “Nematicidal compositions and methods” (Divergence, Inc., priority 2002, dated 2005).

Key:
[1] = test system: C. elegans; assay: Nematicidal activity of single fatty acid methyl ester emulsions against Caenorhabditis elegans (Example 4); type: cell-based
Description: Mixed stage Caenorhabditis elegans were washed off plates seeded with OP50 bacteria using M9 solution. 250 μl of the M9 solution, which contained about 50 worms, was pipetted into each well of a 24-well plate.
(§1) Fatty acid methyl ester emulsions were prepared following the teachings of Kim et al (U.S. Pat. No. 5,698,592). Briefly, 1 ml 1% stock solution emulsions were prepared by mixing 10 μl of fatty acid methyl ester with 20 μl of the surfactant Igepal CO 630 in a 1.5 ml eppendorf tube. After careful mixing of fatty acid and Igepal CO 630, 850 μl of ddH20 was added and mixed by gentle pipetting until a homogeneous solution was obtained. Finally, 120 μl of pure isopropanol was added and mixed by gentle pipetting. This stock solution was then used to produce various fatty acid methyl ester dilution emulsions in 24-well plate assays.
To each well, fatty acid emulsions or control emulsions were added and rapidly mixed by swirling. Nematode viability was scored by visual observation and motility assays at various time points 24 hours following addition of emulsions or controls. The fatty acid emulsions tested were methyl esters of nonanoic (pelargonic) acid, ricinoleic acid, vernolic acid, linoleic acid, oleic acid, and control emulsions lacking fatty acids.

[2] = test system: M. javanica; assay: Nematicidal activity of fatty acid methyl ester emulsions against root knot nematode J2 larvae (Example 6); type: cell-based, Meloidogyne javanica; settings: 0.1% emulsion; 48 hours incubation, counted about 24 hours after transfer to plates
Description: as §1
(§2) Meloidogyne incognita and javanica were prepared from tomato roots. The roots were bleached and the debris was separated from the J2 larvae and eggs by filtration followed by sucrose density gradient centrifugation. Eggs were hatched over 4 days at 15° C. and the J2 larvae were collected by passage though a filter, followed by centrifugation.
(§3) Nematodes and emulsions were incubated with shaking at room temperature for 48 hours. The contents of each well were transferred to a small spot on individual NGM plates lacking bacteria. About 24 hours after the transfer to plates, worms on and off the inoculation spot were counted as not viable or viable, respectively. Worms were considered viable if they had crawled away from the inoculation spot, or if they were moving. Worms were considered non-viable if they remained at the inoculation spot.

[3] = test system: M. incognita; assay: as above; type: cell-based, Meloidogyne incognita; settings: 0.1% emulsion; 48 hours incubation, counted about 24 hours after transfer to plates
Description: as §1, §2, §3

[4] = test system: root knot nematodes (Meloidogyne spp.); assay: Nematicidal activity against root knot nematodes, summary statement; type: cell-based; settings: concentration of 0.1%
Description: as §2, §3

[5] = test system: tomato seedlings; assay: Phytotoxicity evaluation on tomato seedlings; type: in vivo; settings: for Phytotoxic effect on tomato seedlings: 1% emulsion; for Visible effects on tomato seedlings: 250 μl of 1% emulsion applied to stem-media interface of two-week seedlings
Description: Sterilized tomato seeds were germinated in magenta jars containing Gamborg's agar media. After two weeks of growth, seedlings were treated with 250 μl of 1% fatty acid methyl ester emulsion (nonanoic acid, ricinoleic acid, ricinelaidic acid, oleic acid, or a control emulsion lacking any fatty acid), applied directly to the stem-media interface. Tomato seedlings were scored at various times after application of emulsions.

[6] = test system: C. elegans; assay: Nematicidal activity of fatty acid methyl ester emulsions, spectrum (Example 8); type: cell-based, Caenorhabditis elegans; settings: C. elegans mixed stage
Description: (§4) Briefly, the indicated fatty acid emulsions were added and rapidly mixed by swirling. Nematode viability was scored by visual observation and motility assays 24 hours following addition of emulsions (48 hours for plant parasitic nematodes Meloidogyne and Heterodera species). The fatty acid emulsions tested were methyl esters of nonanoic (pelargonic) acid, ricinelaidic acid, ricinoleic acid, vernolic acid, linoleic acid, and oleic acid. […] Results shown are mean % values obtained from multiple independent experiments
(§5) The Caenorhabiditis elegans were mixed stage populations. Similar effects seen on several other free-living nematode species. The Parastrongyloides trichosuri (parasite of Australian bushtail possum) were dauer-like infective 3rd stage larva. Similar effects are also seen against free-living stages. The Meloidogyne incognita and Meloidogyne javanica (root knot nematode) were 2nd stage juveniles (dauer-like infective stage). The Heterodera glycines (soybean cyst nematode) were 2nd stage juveniles (dauer-like infective stage). Finally, the Pratylenchus scribneri (corn lesion nematode) were mixed stage populations.

[7] = test system: M. incognita; assay: as above; type: cell-based, Meloidogyne incognita; settings: M. incognita 2nd stage juveniles, scored at 48 hours
Description: as §4, §5

[8] = test system: M. javanica; assay: as above; type: cell-based, Meloidogyne javanica; settings: M. javanica 2nd stage juveniles, scored at 48 hours
Description: as §4, §5

[9] = test system: H. glycines; assay: as above; type: cell-based, Heterodera glycines; settings: H. glycines 2nd stage juveniles, scored at 48 hours
Description: as §4, §5

[10] = test system: P. scribneri; assay: as above; type: cell-based, Pratylenchus scribneri; settings: P. scribneri mixed stage
Description: as §4, §5

[11] = test system: C. elegans; assay: Nematicidal activity of emulsions made with Tween-20 (replacing Igepal CO 630) against C. elegans; type: cell-based, Caenorhabditis elegans; settings: Tween-20 emulsion
Description: Some nematodes assayed as described in Example 9 lacked tolerance to emulsions made with the surfactant Igepal CO 630. For this reason some assays were repeated with Tween-20-based emulsions.
as §1, with “Briefly,” for “Fatty acid methyl ester emulsions were prepared following the teachings of Kim et al (U.S. Pat. No. 5,698,592). Briefly,”, “Tween-20” for “Igepal CO 630”, “Tween-20,” for “Igepal CO 630,”

[12] = test system: P. trichosuri; assay: Nematicidal activity of fatty acid methyl ester emulsions, spectrum (Example 8); type: cell-based, Parastrongyloides trichosuri; settings: P. trichosuri infective 3rd stage larva
Description: as §4, §5

[13] = test system: free-living, animal parasitic, and plant parasitic nematodes; assay: Nematicidal activity across the spectrum of nematodes, summary statement (Example 8); type: cell-based
Description: as §4, §5

[14] = test system: B. malayi; assay: Nematicidal activity of tween-based emulsions against microfilarial nematodes; type: cell-based, Brugia malayi
Description: To each well, tween-based fatty acid emulsions were added and rapidly mixed by swirling. Nematode microfilaria viability was scored by visual observation of motility at 24 and 48 hours following addition of emulsions. The fatty acid emulsions tested were methyl esters of ricinoleic acid, vernolic acid, ricinelaidic acid, oleic acid, and control emulsions lacking fatty acids. The results of this study are presented in Table 7 as the percentage of non-motile microfilaria 24 hours after inoculation and in Table 8 as the percentage of non-motile microfilaria 48 hours after inoculation

[15] = 24 hrs post-inoculation, 0.0008%
[16] = 24 hrs post-inoculation, 0.0016%
[17] = 24 hrs post-inoculation, 0.003%
[18] = 24 hrs post-inoculation, 0.005%
[19] = 24 hrs post-inoculation, 0.0067%
[20] = 24 hrs post-inoculation, 0.008%
[21] = 48 hrs post-inoculation, 0.0008%
[22] = 48 hrs post-inoculation, 0.0016%
[23] = 48 hrs post-inoculation, 0.003%
[24] = 48 hrs post-inoculation, 0.005%
[25] = 48 hrs post-inoculation, 0.0067%
[26] = 48 hrs post-inoculation, 0.008%

## CCCCCCCCC(=O)OC [Nonanoic (C9-methyl ester), pelargonic acid methyl ester, reference compound]
[1]; 0.003% emulsion, 1 hr
  Percentage of Worm Death: 50%
[1]; 0.003% emulsion, 6 hr
  Percentage of Worm Death: 50%
[1]; 0.003% emulsion, 24 hr
  Percentage of Worm Death: 50%
[1]; 0.1% emulsion, 1 hr
  Percentage of Worm Death: 100%
[1]; 0.1% emulsion, 6 hr
  Percentage of Worm Death: 100%
[1]; 0.1% emulsion, 24 hr
  Percentage of Worm Death: 100%
[1]; concentration of 0.1%
  Nematicidal activity (in words): strongly nematicidal
[1]; emulsion, C. elegans
  Onset of effect on nematode movement (in words): almost immediate cessation of nematode movement and subsequent death
[2]
  M. javanica (% not viable): 100%
[3]
  M. incognita (% not viable): 100%
[4]
  Nematicidal activity (in words): significant nematicidal activity
[5]; within 18 hours of application
  Phytotoxic effect on tomato seedlings: distinct loss of turgor pressure (wilting phenotype)
[5]; within 24 hours
  Phytotoxic effect on tomato seedlings: almost entirely bleached to a pale white color and had nearly totally collapsed
[5]
  Visible effects on tomato seedlings: showed obvious effects on the tomatoes
[6]; 0.001% solution
  % Worm Death (24 hr): 30%
[6]; 0.01% solution
  % Worm Death (24 hr): 100%
[6]; 0.1% solution
  % Worm Death (24 hr): 100%
[7]; 0.1% solution
  % Worm Death (24 hr): 100%
[8]; 0.1% solution
  % Worm Death (48 hr): 100%
[9]; 0.01% solution
  % Worm Death (24 hr): >95%
[9]; 0.1% solution
  % Worm Death (24 hr): 100%
[10]; 0.01% solution
  % Worm Death (24 hr): <20%
[10]; 0.1% solution
  % Worm Death (24 hr): <20%
[11]; 0.001% solution
  % Worm Death (24 hr): 30%
[11]; 0.01% solution
  % Worm Death (24 hr): 100%
[11]; 0.1% solution
  % Worm Death (24 hr): 100%

## CCCCCCC(O)C/C=C/CCCCCCCC(=O)OC (stereo not drawn) [Ricinelaidic, 12-hydroxy-trans-9-octadecenoic acid methyl ester]
[5]
  Visible effects on tomato seedlings: none of the tomatoes treated with the other fatty acid methyl ester emulsions showed visible effects
[6]; 0.001% solution
  % Worm Death (24 hr): 75%
[6]; 0.01% solution
  % Worm Death (24 hr): 100%
[6]; 0.1% solution
  % Worm Death (24 hr): 100%
[12]; 0.01% solution
  % Worm Death (24 hr): 100%
[12]; 0.1% solution
  % Worm Death (24 hr): 100%
[7]; 0.001% solution
  % Worm Death (24 hr): 97%
[7]; 0.01% solution
  % Worm Death (24 hr): ˜99%
[7]; 0.1% solution
  % Worm Death (24 hr): ˜99%
[8]; 0.001% solution
  % Worm Death (48 hr): ˜60%
[8]; 0.01% solution
  % Worm Death (48 hr): 100%
[8]; 0.1% solution
  % Worm Death (48 hr): 100%
[9]; 0.001% solution
  % Worm Death (24 hr): 100%
[9]; 0.01% solution
  % Worm Death (24 hr): 100%
[9]; 0.1% solution
  % Worm Death (24 hr): 100%
[10]; 0.01% solution
  % Worm Death (24 hr): ˜40%
[10]; 0.1% solution
  % Worm Death (24 hr): ˜70%
[13]
  Breadth of nematicidal activity (in words): favorable nematicidal activity against a wide spectrum of divergent nematode genera
[13]; concentrations of 0.1% and 0.01%
  Nematicidal activity (in words): strongly nematicidal
[11]; 0.001% solution
  % Worm Death (24 hr): 60%
[11]; 0.01% solution
  % Worm Death (24 hr): 100%
[11]; 0.1% solution
  % Worm Death (24 hr): 100%
[14]; [15]
  percentage of non-motile microfilaria: 0%
[14]; [16]
  percentage of non-motile microfilaria: 19.1%
[14]; [17]
  percentage of non-motile microfilaria: 100%
[14]; [18]
  percentage of non-motile microfilaria: 100%
[14]; [19]
  percentage of non-motile microfilaria: 100%
[14]; [20]
  percentage of non-motile microfilaria: 100%
[14]; [21]
  percentage of non-motile microfilaria: 0%
[14]; [22]
  percentage of non-motile microfilaria: 49.4%
[14]; [23]
  percentage of non-motile microfilaria: 100%
[14]; [24]
  percentage of non-motile microfilaria: 100%
[14]; [25]
  percentage of non-motile microfilaria: 100%
[14]; [26]
  percentage of non-motile microfilaria: 100%
[14]; tween-based emulsions
  Microfilarialcidal activity (in words): strong microfilarialcidal activity

## CCCCC[C@H]1O[C@H]1C/C=C\CCCCCCCC(=O)OC [Vernolic Acid (C18-methyl ester), (12,13)-epoxy-cis-9-octadecenoic acid methyl ester]
[1]; 0.003% emulsion, 1 hr
  Percentage of Worm Death: 20%
[1]; 0.003% emulsion, 6 hr
  Percentage of Worm Death: 20%
[1]; 0.003% emulsion, 24 hr
  Percentage of Worm Death: 20%
[1]; 0.1% emulsion, 1 hr
  Percentage of Worm Death: 65%
[1]; 0.1% emulsion, 6 hr
  Percentage of Worm Death: 65%
[1]; 0.1% emulsion, 24 hr
  Percentage of Worm Death: 75%
[2]
  M. javanica (% not viable): 90%
[3]
  M. incognita (% not viable): 100%
[4]
  Nematicidal activity (in words): significant nematicidal activity
[6]; 0.001% solution
  % Worm Death (24 hr): 30%
[6]; 0.01% solution
  % Worm Death (24 hr): 50%
[6]; 0.1% solution
  % Worm Death (24 hr): 80%
[12]; 0.01% solution
  % Worm Death (24 hr): ˜90%
[12]; 0.1% solution
  % Worm Death (24 hr): ˜95%
[7]; 0.01% solution
  % Worm Death (24 hr): 73%
[7]; 0.1% solution
  % Worm Death (24 hr): 98%
[8]; 0.01% solution
  % Worm Death (48 hr): 60%
[8]; 0.1% solution
  % Worm Death (48 hr): 90%
[9]; 0.001% solution
  % Worm Death (24 hr): 18%
[9]; 0.01% solution
  % Worm Death (24 hr): 20%
[9]; 0.1% solution
  % Worm Death (24 hr): 30%
[10]; 0.01% solution
  % Worm Death (24 hr): <20%
[10]; 0.1% solution
  % Worm Death (24 hr): <20%
[14]; [15]
  percentage of non-motile microfilaria: 0%
[14]; [16]
  percentage of non-motile microfilaria: 0%
[14]; [17]
  percentage of non-motile microfilaria: 0%
[14]; [18]
  percentage of non-motile microfilaria: 66%
[14]; [19]
  percentage of non-motile microfilaria: 100%
[14]; [20]
  percentage of non-motile microfilaria: 100%
[14]; [21]
  percentage of non-motile microfilaria: 0%
[14]; [22]
  percentage of non-motile microfilaria: 0%
[14]; [23]
  percentage of non-motile microfilaria: 5%
[14]; [24]
  percentage of non-motile microfilaria: 100%
[14]; [25]
  percentage of non-motile microfilaria: 100%
[14]; [26]
  percentage of non-motile microfilaria: 100%
